Patent US12473298B2, “Amide compounds, preparation method therefor, and use thereof in the medical field” (Shanghai Synergy Pharmaceutical Sciences Co., Ltd., priority 2019, dated 2025)
Read-outs that look alike come from different tables or passages of the source.

What was measured:
[1] = system: human diffuse large B-cell lymphoma cells (Karpas 422 cell); test: Karpas 422 cell proliferation, Calcein AM staining; format: cell-based
[2] = Pharmacokinetic experiment in rats; format: in vivo, SD rats
Procedure: A certain amount of compound was weighted and dissolved in 0.1% Tween under vortex and ultrasound, and 0.5% carboxymethyl cellulose sodium (CMC-NA) solution was added to form a uniform solution.

[3] = system: human diffuse large cell lymphoma B lymphocytes (Pfeiffer cell); test: Pfeiffer cell proliferation, Calcein AM staining; format: cell-based
Text: The diffuse large cell lymphoma B lymphocytes (Pfeiffer cells) were collected and counted when growing well.

[4] = target: wild-type EZH2 (Homo sapiens (Human), UniProt Q15910); test: radiometric assay, activity to wild-type EZH2 of PRC2; details: read-out: Wild-type EZH2 IC50 Nanomoles per Liter
Procedure: 25 μL of reaction solution was transferred to a scintillation plate, which was incubated at room temperature for 1 hour (h) and washed with deionized water and 0.1% Tween 20 for three times. A PerkinElmer liquid scintillation/luminescence counter was used to read the value, and GraphPad Prism 5 was used to calculate the median inhibitory concentration (IC50) of the compounds.

[5] = target: Mutant type EZH2(Y641F) (Homo sapiens (Human), UniProt Q15910, Y641F); test: AlphaLISA, mutant type PRC2 complex EZH2(Y641F); format: biochemical; details: read-out: Mutant type EZH2(Y641F) IC50 Nanomoles per Liter
[6] = target: Mutant type EZH2(A677G) (Homo sapiens (Human), UniProt Q15910, A677G); test: AlphaLISA, mutant type PRC2 complex EZH2(A677G); format: biochemical; details: read-out: Mutant type EZH2(A677G) IC59 Nanomoles per Liter
[7] = Homo sapiens, KARPAS-422, data of 14th day, read-out: Karpas422 Proliferation IC50 Nanomoles per Liter
[8] = male, SD, rat, plasma, rats, Intravenous-Dose 4 mg/kg, read-out: Area Curve (AUC, ng/mL · h)
[9] = male, SD, rat, plasma; rats, Intravenous-Dose 4 mg/kg; read-out: Half life T1/2, h) (converted)
[10] = male, SD, rat, plasma, rats, Oral-Dose 20 mg/kg, read-out: Area Curve (AUC, ng/mL · h)
[11] = male, SD, rat, plasma, rats, Oral-Dose 20 mg/kg, read-out: Blood Drug level (Cmax, ng/mL)
[12] = male, SD, rat, plasma, rats, oral 20 mg/kg vs intravenous 4 mg/kg, read-out: Bioavailability (P %)
[13] = Homo sapiens, Pfeiffer, data of 14th day, read-out: Pfeiffer Proliferation IC50 Nanomoles per Liter
[14] = male, SD, rat, in vivo, iv, 4 mg/kg
[15] = male, SD, rat, in vivo, po, 20 mg/kg
[16] = Homo sapiens, KARPAS-422, read-out: Karpas422 Proliferation IC50 Nanomoles per Liter (nM)
[17] = Homo sapiens, Pfeiffer, read-out: Pfeiffer Proliferation IC50 Nanomoles per Liter (nM)

Sequence of wild-type EZH2 (Q15910 whole entry): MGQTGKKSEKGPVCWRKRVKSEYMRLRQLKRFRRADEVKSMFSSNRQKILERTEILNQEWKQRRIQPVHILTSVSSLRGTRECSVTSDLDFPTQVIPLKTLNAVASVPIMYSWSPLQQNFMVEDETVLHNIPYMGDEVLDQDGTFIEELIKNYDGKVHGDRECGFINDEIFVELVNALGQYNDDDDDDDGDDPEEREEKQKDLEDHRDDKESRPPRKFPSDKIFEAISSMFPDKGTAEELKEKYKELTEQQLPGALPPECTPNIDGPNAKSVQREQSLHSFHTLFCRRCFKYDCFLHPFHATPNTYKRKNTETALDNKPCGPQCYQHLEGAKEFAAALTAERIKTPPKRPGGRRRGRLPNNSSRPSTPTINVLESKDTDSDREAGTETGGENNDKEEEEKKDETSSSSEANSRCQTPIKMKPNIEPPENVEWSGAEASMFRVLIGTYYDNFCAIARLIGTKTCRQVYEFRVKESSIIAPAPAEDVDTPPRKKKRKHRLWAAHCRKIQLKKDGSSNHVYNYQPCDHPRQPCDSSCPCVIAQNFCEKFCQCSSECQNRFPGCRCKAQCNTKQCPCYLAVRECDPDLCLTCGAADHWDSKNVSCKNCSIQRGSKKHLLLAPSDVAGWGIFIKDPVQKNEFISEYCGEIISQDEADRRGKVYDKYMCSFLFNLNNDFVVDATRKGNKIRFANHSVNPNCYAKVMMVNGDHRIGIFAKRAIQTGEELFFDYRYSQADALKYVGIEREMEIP
Sequence of wild-type EZH2 (O75530 whole entry partner): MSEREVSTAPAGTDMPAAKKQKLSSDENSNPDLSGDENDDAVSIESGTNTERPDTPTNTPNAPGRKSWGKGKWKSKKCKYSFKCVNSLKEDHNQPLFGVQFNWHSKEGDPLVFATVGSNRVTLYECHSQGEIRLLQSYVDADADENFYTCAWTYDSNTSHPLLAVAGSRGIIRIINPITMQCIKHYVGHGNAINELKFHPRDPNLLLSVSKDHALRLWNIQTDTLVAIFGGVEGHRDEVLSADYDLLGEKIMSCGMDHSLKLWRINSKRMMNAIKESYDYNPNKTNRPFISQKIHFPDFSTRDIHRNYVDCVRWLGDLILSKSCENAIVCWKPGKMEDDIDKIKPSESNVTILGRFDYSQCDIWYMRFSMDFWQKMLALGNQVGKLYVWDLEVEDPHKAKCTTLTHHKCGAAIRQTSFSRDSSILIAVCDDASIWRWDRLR
Sequence of wild-type EZH2 (Q15022 whole entry partner): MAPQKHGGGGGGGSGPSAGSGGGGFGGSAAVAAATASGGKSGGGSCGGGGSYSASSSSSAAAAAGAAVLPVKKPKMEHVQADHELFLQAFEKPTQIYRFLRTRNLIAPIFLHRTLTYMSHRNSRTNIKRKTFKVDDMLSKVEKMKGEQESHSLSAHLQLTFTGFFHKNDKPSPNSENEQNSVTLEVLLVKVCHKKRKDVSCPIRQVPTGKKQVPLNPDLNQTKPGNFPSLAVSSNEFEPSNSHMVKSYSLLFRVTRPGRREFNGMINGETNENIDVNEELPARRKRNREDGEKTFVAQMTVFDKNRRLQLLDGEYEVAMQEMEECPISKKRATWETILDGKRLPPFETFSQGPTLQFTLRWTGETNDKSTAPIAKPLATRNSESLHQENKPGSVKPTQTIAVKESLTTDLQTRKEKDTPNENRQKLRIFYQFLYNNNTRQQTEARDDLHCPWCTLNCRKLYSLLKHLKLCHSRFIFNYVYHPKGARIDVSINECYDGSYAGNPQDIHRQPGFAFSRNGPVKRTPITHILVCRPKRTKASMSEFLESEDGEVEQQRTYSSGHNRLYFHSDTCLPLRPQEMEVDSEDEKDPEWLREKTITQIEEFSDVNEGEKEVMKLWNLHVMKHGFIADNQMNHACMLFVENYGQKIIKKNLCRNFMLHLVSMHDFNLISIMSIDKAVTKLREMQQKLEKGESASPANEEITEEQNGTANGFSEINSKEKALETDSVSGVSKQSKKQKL
Sequence of Mutant type EZH2(A677G) (Q15910 whole entry A677G): as the sequence (Q15910 whole entry) above, with A677G counted along it
Sequence of Mutant type EZH2(A677G) (O75530 whole entry partner): as the sequence (O75530 whole entry partner) above
Sequence of Mutant type EZH2(A677G) (Q15022 whole entry partner): as the sequence (Q15022 whole entry partner) above
Sequence of Mutant type EZH2(A677G) (Q09028 whole entry partner): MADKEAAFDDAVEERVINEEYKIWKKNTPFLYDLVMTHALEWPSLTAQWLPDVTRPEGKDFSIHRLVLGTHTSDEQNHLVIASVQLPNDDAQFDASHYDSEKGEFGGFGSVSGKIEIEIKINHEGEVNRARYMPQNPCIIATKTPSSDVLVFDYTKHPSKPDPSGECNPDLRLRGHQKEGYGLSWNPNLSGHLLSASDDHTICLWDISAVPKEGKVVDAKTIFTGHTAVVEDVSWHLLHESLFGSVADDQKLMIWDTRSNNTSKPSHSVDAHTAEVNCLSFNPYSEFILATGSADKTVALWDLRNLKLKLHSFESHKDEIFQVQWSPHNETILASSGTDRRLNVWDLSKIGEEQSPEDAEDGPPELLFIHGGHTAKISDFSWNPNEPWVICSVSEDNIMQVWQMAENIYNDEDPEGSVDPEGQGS
Sequence of Mutant type EZH2(A677G) (Q6ZN18 whole entry partner): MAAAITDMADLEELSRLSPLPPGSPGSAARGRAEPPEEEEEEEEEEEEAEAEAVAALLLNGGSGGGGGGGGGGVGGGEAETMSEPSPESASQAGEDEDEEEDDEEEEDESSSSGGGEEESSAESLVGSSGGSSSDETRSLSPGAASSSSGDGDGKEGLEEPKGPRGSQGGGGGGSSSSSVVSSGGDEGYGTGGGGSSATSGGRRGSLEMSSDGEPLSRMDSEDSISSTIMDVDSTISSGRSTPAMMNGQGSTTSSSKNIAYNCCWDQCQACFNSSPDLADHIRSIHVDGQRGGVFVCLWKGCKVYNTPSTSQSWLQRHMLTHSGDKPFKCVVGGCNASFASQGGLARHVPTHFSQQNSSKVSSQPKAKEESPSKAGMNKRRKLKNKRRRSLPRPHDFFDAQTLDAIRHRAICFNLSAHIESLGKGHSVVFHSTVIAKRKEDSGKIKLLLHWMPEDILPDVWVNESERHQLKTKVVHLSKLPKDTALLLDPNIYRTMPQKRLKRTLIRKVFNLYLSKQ
Sequence of Mutant type EZH2(Y641F) (Q15910 whole entry Y641F): as the sequence (Q15910 whole entry) above, with Y641F counted along it
Sequence of Mutant type EZH2(Y641F) (O75530 whole entry partner): as the sequence (O75530 whole entry partner) above
Sequence of Mutant type EZH2(Y641F) (Q15022 whole entry partner): as the sequence (Q15022 whole entry partner) above
Sequence of Mutant type EZH2(Y641F) (Q09028 whole entry partner): as the sequence (Q09028 whole entry partner) above
Sequence of Mutant type EZH2(Y641F) (Q6ZN18 whole entry partner): as the sequence (Q6ZN18 whole entry partner) above

Compound | IC50 [1, 7] | AUC [2, 8] | half-life [2, 9] | AUC [2, 10] | Cmax [2, 11] | bioavailability [2, 12] | IC50 [3, 13] | IC50 [4] | IC50 [5] | IC50 [6] | also measured
CCN(c1cc(-c2ccc3c(c2)N(CC(F)(F)F)C(=O)C32CCOCC2)cc(C(=O)NCc2c(C)cc(C)[nH]c2=O)c1C)C1CCOCC1 [Example 13, N-((4,6-dimethyl-2-carbonyl-1,2-dihydropyridin-3-yl)methyl)-3-(ethyl(tetrahydro-2H-pyran-4-yl)amino)-2-methyl-5-(2-carbonyl-1-(2,2,2-trifluoroethyl)-2′,3′,5′,6′-tetrahydrospiro[dihydroindole-3,4′-pyran]-6-yl)benzamide] | 1.94 nM | 975 ng·h/mL | 1.87 h | 1190 ng·h/mL | 433 ng/mL | 24.4% | 0.94 nM | – | – | – | –
CCN(c1cc(-c2ccc3c(c2)N(CCC(F)(F)F)C(=O)C32CCOCC2)cc(C(=O)NCc2c(C)cc(C)[nH]c2=O)c1C)C1CCOCC1 [Example 14, N-((4,6-dimethyl-2-carbonyl-1,2-dihydropyridin-3-yl)methyl)-3-(ethyl(tetrahydro-2H-pyran-4-yl)amino)-2-methyl-5-(2-carbonyl-1-(3,3,3-trifluoropropyl)-2′,3′,5′,6′-tetrahydrospiro[dihydroindole-3,4′-pyran]-6-yl)benzamide] | 1.73 nM | 966 ng·h/mL | 1.69 h | 1290 ng·h/mL | 530 ng/mL | 26.8% | 0.68 nM | – | – | – | –
CCN1CCC2(CC1)CN(C)c1cc(-c3cc(C(=O)NCc4c(C)cc(C)[nH]c4=O)c(C)c(N(CC)C4CCOCC4)c3)ccc12 [Example 30, N-((4,6-dimethyl-2-oxo-1,2-dihydropyridin-3-yl)methyl)-3-(ethyl(tetrahydro-2H-pyran-4-yl)amino)-5-(1′-ethyl-1-methylspiro[dihydroindole-3,4′-piperidine]-6-yl)-2-methylbenzamide] | 1.2 nM | – | – | – | – | – | […] | – | – | – | AUC [2, 14]: 879 ng·h/mL; half-life [2, 14]: 1.24 h; AUC [2, 15]: 1260 ng·h/mL; Cmax [2, 15]: 443 ng/mL; bioavailability [2, 15]: 28.6%
CCN(c1cc(-c2ccc3c(c2)N(C)C(=O)C32CCN(C(=O)OC)CC2)cc(C(=O)NCc2c(C)cc(C)[nH]c2=O)c1C)C1CCOCC1 [Example 32, Methyl 6-(3-(((4,6-dimethyl-2-carbonyl-1,2-dihydropyridin-3-yl)methyl)carbamoyl)-5-(ethyl(tetrahydro-2H-pyran-4-yl)amino)-4-methylphenyl)-1-methyl-2-carbonylspiro[dihydroindole-3,4′-piperidine]-1′-carboxylate] | 1.73 nM | 943 ng·h/mL | 1.64 h | 1360 ng·h/mL | 431 ng/mL | 28.8% | 1.21 nM | – | – | – | –
CCN(c1cc(-c2ccc3c(c2)N(CC(F)(F)C(F)(F)F)C(=O)C32CCOCC2)cc(C(=O)NCc2c(C)cc(C)[nH]c2=O)c1C)C1CCOCC1 [Example 39, N-((4,6-dimethyl-2-oxo-1,2-dihydropyridin-3-yl)methyl)-3-(ethyl(tetrahydro-2H-pyran-4-yl)amino)-2-methyl-5-(2-oxo-1-(2,2,3,3,3-pentafluoropropyl)-2′,3′,5′,6′-tetrahydrospiro[dihydroindole-3,4′-pyran]-6-yl)benzamide] | – | 897 ng·h/mL | 1.62 h | 1090 ng·h/mL | 478 ng/mL | 24.4% | – | – | – | – | IC50 [1, 16]: 0.82 nM; IC50 [3, 17]: 0.3 nM
CCN(c1cc(-c2ccc3c(c2)CCC32CCOCC2)cc(C(=O)NCc2c(OC)cc(C)[nH]c2=O)c1C)C1CCOC(C)(C)C1 (stereo not shown) [Example 43, 3-((2,2-dimethyltetrahydro-2H-pyran-4-yl)(ethyl)amino)-5-(2,2′,3,3′,5′,6′-hexahydrospiro[indene-1,4-pyran]-5-yl)-N-((4-methoxy-6-methyl-2-oxo-1,2-dihydropyridin-3-yl)methyl)-2-methylbenzamide] | – | 1030 ng·h/mL | 1.64 h | 1620 ng·h/mL | 490 ng/mL | 31.3% | – | – | – | – | IC50 [1, 16]: 1.36 nM; IC50 [3, 17]: 1.19 nM
CCN(c1cc(-c2ccc3c(c2)N(CCOC)C(=O)C32CCOCC2)cc(C(=O)NCc2c(C)cc(C)[nH]c2=O)c1C)C1CCOCC1 [Example 45, N-((4,6-dimethyl-2-oxo-1,2-dihydropyridin-3-yl)methyl)-3-(ethyl(tetrahydro-2H-pyran-4-yl)amino)-5-(1-(2-methoxyethyl)-2-oxo-2′,3′,5′,6′-tetrahydrospiro[dihydroindole-3,4′-pyran]-6-yl)-2-methylbenzamide] | 0.43 nM | 944 ng·h/mL | 1.71 h | 1310 ng·h/mL | 505 ng/mL | 27.7% | 0.12 nM | 710 pM | – | – | –
CCN(c1cc(-c2ccc3c(c2)NC(=O)C32CCN(C(=O)OC(C)(C)C)CC2)cc(C(=O)NCc2c(C)cc(C)[nH]c2=O)c1C)C1CCOCC1 [Example 79, Tert-butyl 6-(3-(((4,6-dimethyl-2-oxo-1,2-dihydropyridin-3-yl)methyl)carbamoyl)-5-(ethyl(tetrahydro-2H-pyran-4-yl)amino)-4-methylphenyl)-2-oxospiro[dihydroindole-3,4′-piperidine]-1′-carboxylate] | 2.65 nM | – | – | – | – | – | 1.65 nM | 1090 pM | – | – | –
CCN1CCC2(CC1)C(=O)Nc1cc(-c3cc(C(=O)NCc4c(C)cc(C)[nH]c4=O)c(C)c(N(CC)C4CCOCC4)c3)ccc12 [Example 85, N-((4,6-dimethyl-2-oxo-1,2-dihydropyridin-3-yl)methyl)-3-(ethyl(tetrahydro-2H-pyran-4-yl)amino)-2-methyl-5-(1′-ethyl-2-oxospiro[dihydroindole-3,4′-piperidine]-6-yl)benzamide] | 2.85 nM | – | – | – | – | – | 2.42 nM | 810 pM | 820 pM | 380 pM | –
CCN(c1cc(-c2ccc3c(c2)NC(=O)C32CCN(S(C)(=O)=O)CC2)cc(C(=O)NCc2c(C)cc(C)[nH]c2=O)c1C)C1CCOCC1 [Example 87, N-((4,6-dimethyl-2-oxo-1,2-dihydropyridin-3-yl)methyl)-3-(ethyl(tetrahydro-2H-pyran-4-yl)amino)-2-methyl-5-(1′-methylsulfonyl-2-oxospiro[dihydroindole-3,4′-piperidine]-6-yl)benzamide] | 2.34 nM | – | – | – | – | – | 1.86 nM | – | 530 pM | – | –
CCN(c1cc(-c2ccc3c(c2)NC(=O)C32CCS(=O)(=O)CC2)cc(C(=O)NCc2c(C)cc(C)[nH]c2=O)c1C)C1CCOCC1 [Example 90, N-((4,6-dimethyl-2-oxo-1,2-dihydropyridin-3-yl)methyl)-5-(1′,1′-dioxo-2-oxo-2′,3′,5′,6′-tetrahydrospiro[dihydroindole-3,4′-thiapyran]-6-yl)-3-(ethyl(tetrahydro-2H-pyran-4-yl)amino)-2-methylbenzamide] | 2.83 nM | – | – | – | – | – | 2.52 nM | 1420 pM | 730 pM | 580 pM | –
CCN(c1cc(-c2ccc3c(c2)NC(=O)C32CCOCC2)cc(C(=O)NCc2c(C)cc(C)[nH]c2=O)c1C)C1CCSCC1 [Example 95, N-((4,6-Dimethyl-2-oxo-1,2-dihydropyridin-3-yl)methyl)-3-(ethyl(tetrahydro-2H-thiapyran-4-yl)amino)-2-methyl-5-(2-oxo-2′,3′,5′,6′-tetrahydrospiro[dihydroindole-3,4′-pyran]-6-yl)benzamide] | 2.79 nM | – | – | – | – | – | 2.35 nM | 780 pM | 530 pM | 480 pM | –
CCN(c1cc(-c2ccc3c(c2)NC(=O)C32CCOCC2)cc(C(=O)NCc2c(C)cc(C)[nH]c2=O)c1C)C1CCOCC1F (stereo not shown) [Example 103, N-((4,6-Dimethyl-2-oxo-1,2-dihydropyridin-3-yl)methyl)-3-(ethyl(3-fluoro-tetrahydro-2H-pyran-4-yl)amino)-2-methyl-5-(2-oxo-2′,3′,5′,6′-tetrahydrospiro[dihydroindole-3,4′-pyran]-6-yl)benzamide] | 0.53 nM | – | – | – | – | – | 0.36 nM | 920 pM | 630 pM | 520 pM | –
N-((4,6-dimethyl-2-carbonyl-1,2-dihydropyridin-3-yl)methyl)-3-(ethyl(tetrahydro-2H-pyran-4-yl)amino)-2-methyl-5-(1-neopentyl-2′,3′,5′,6′-tetrahydrospiro[dihydroindole-3,4′-pyran]-6-yl)benzamide [Example 29] | – | – | – | – | – | – | – | – | – | – | IC50 ([1]; read-out: Karpas422 Proliferation IC50 Nanomoles per Liter): 3.01 nM; IC50 ([3]; read-out: Pfeiffer Proliferation IC50 Nanomoles per Liter): 2.13 nM
N-((4,6-dimethyl-2-oxo-1,2-dihydropyridin-3-yl)methyl)-3-(ethyl(tetrahydro-2H-pyran-4-yl)amino)-5-(1-isopropyl-2′,3′,5′,6′-tetrahydrospiro[dihydroindole-3,4′-pyran]-6-yl)-2-methylbenzamide [Example 65] | – | – | – | – | – | – | – | – | – | 780 pM | –
